Data published in US12582653B2, “Method for treating idiopathic pulmonary fibrosis” (BEIJING TIDE PHARMACEUTICAL CO., LTD., priority 2020, dated 2026).

How the values were obtained:
[1] = system: BLM-induced mouse IPF model; experiment: BLM-induced mouse IPF model (Example 2); type: in vivo; conditions: for up-regulation of TIMP-1 mRNA expression in the lung tissue induced by bleomycin / up-regulation of COL1A1 mRNA expression in the lung tissue induced by bleomycin: real-time fluorescent quantitative PCR, β-actin reference; for up-regulation of TIMP-1 mRNA expression in the lung tissue induced by bleomycin: FIG. 5A; for up-regulation of COL1A1 mRNA expression in the lung tissue induced by bleomycin: FIG. 5B
Experimental: 60 C57BL/6 mice (purchased from SLAC, Shanghai) were adaptively fed for 1 week, and 50 animals were randomly selected. 3 mg/kg of bleomycin (BLM, purchased from SIGMA, #SIGMA-P9564) was administered through intratracheal (IT) injection to the mice to establish the IPF animal model. The remaining 10 animals were injected with physiological saline at a volume same as the injected BLM, and served as the normal group (N=10). The day of the injection of bleomycin was set as day 0 (DO); on day 6, the animals were randomly divided into 4 groups according to body weight: vehicle group (N=14), compound 007 administration group (N=12), compound 128 administration group (N=12), and positive control pirfenidone (purchased from SIGMA, #SIGMA-P2116) administration group (N=12).
The animals in each group were administered on days 8-21: the animals in the normal group and vehicle group were intragastrically administered with vehicle 1 (vehicle 1: 20% PEG 400+5% Tween 80+75% ddH2O), the animals in the compound 007 administration group were intragastrically administered with compound 007 (formulated with vehicle 1), the animals in the compound 128 administration group were intragastrically administered with compound 128 (formulated with vehicle 1), and the animals in the Pirfenidone administration group were intragastrically administered with pirfenidone (vehicle 2: 0.2% Methyl cellulose+0.5% Tween 80+99.3% ddH2O).
The body weight and its changes were recorded daily (the calculation formula for the body weight change on day 21: Body weight change on day 21=Body weight on day 21—Body weight on day 0), and the results are shown in FIGS. 1A and 1B.
The animals were euthanized 2 hours after the administration on day 21, and the alveolar lavage fluid was collected for white blood cell (WBC) counting. According to FIG. 3, there was no significant difference in the total white blood cell count in the alveolar lavage fluid of the animals in each administration group.
The left lung of the animals was fixed for histopathological examination, and the Ashcroft score of lung injury was performed by Masson Trichome staining. The scoring standard is as reported in Ashcroft T et al., Journal of clinical pathology, 1988. After 100 times magnification, each successive field was scored (ranging from 0 (normal lung)) to 8 (total fibrous obliteration within the field).
The mRNA levels of lung tissue fibrosis-associated protein collagen 1A1 (COL1A1) and tissue inhibitor of metal matrix protein 1 (TIMP-1) in the lung tissue after the administration was detected by a real-time fluorescent quantitative PCR method. Specifically, the lung tissue fragments were transferred to a centrifuge tube containing 1 mL of TRIzol reagent (Invitrogen, catalog No. 15596018). The lung tissue was ground at low temperature by a tissue grinder. Total RNA in cells was extracted. TransScript All-in-One First-Strand cDNA Synthesis SuperMix for qPCR (One-Step gDNA Removal) (TransGen, catalog No. AT341-02) kit was used for reverse transcription synthesis of cDNA. The mRNA expression changes of COL1A1 and TIMP-1 in the lung tissue was detected by a fluorescence quantitative PCR method.
In the real-time fluorescent quantitative PCR method, β-actin gene was used as the internal reference gene to normalize the data. All primer sequences were from the PrimerBank website, ID No.: 34328108a1 (COL1A1 primer), 6755795a1 (TIMP-1 primer) and 6671509a1 (β-actin primer). All of the 3 primers were synthesized by Invitrogen.

[2] = system: BLM-induced mouse IPF model; experiment: BLM-induced mouse IPF model, different doses (Example 3); type: in vivo, C57BL/6J mice
Experimental: After adaptive feeding, C57BL/6J mice were randomly divided into 2 groups according to body weight: in one group, 15 animals were administered with 50 μL physiological saline through intratracheal injection; and in another group, 90 animals were administered with 50 μL bleomycin (2.5 mg/kg) through intratracheal injection to establish the IPF model. On Day 7 after the establishment of the animal model, animals were randomly grouped according to the weight change (the difference between the weight on Day 7 after the establishment of the model and the day when the model was established). Drugs were administered for 14 consecutive days from the eighth day after the establishment of the animal model. […] The bronchoalveolar lavage fluid (BALF) was collected for white blood cell count. The left lung of the animals was fixed for preparing histopathological slide. H&E and Masson Trichome staining were performed to score the degree of lung injury and fibrosis. Pulmonary fibrosis scoring standard was according to “Standardized quantification of pulmonary fibrosis in histological samples”; lung tissue injury grade score is 0-16, mainly evaluated from four aspects including inflammatory cell infiltration (0-4), hemorrhage (0-4), interstitial and alveolar edema (0-4) and alveolar septum thickness (0-4). A higher score indicate a higher degree of lung tissue injury.

Row | SMILES | up-regulation of TIMP-1 mRNA expression in the lung tissue induced by bleomycin [1] | up-regulation of COL1A1 mRNA expression in the lung tissue induced by bleomycin [1] | survival rate of the animals at the end of the test ([1]; 100 mg/kg orally once a day, 14 days (days 8-21), FIG. 2) | collagen accumulation in lung and degree of lung fibrosis (Ashcroft score, Masson Trichome staining) ([1]; 100 mg/kg orally once a day, 14 days, FIGS. 4A and 4B) | therapeutic effect on lung fibrosis compared with pirfenidone and compound 128 ([1]; 007 and 128 at 100 mg/kg once a day, pirfenidone 90 mg/kg twice a day, FIGS. 4A and 4B) | therapeutic effects compared with pirfenidone and nintedanib ([2]; 30 mpk orally once a day, pirfenidone 90 mg/kg twice a day, nintedanib 30 mg/kg once a day) | therapeutic effects compared with pirfenidone and nintedanib ([2]; 100 mpk orally once a day, pirfenidone 90 mg/kg twice a day, nintedanib 30 mg/kg once a day) | lung injury and fibrosis degree improvements compared with pirfenidone and nintedanib ([2]; 300 mpk orally once a day, pirfenidone 90 mg/kg twice a day, nintedanib 30 mg/kg once a day) | lung injury (H&E score 0-16) ([2]; compared with the model group, FIGS. 7A and 7B) | fibrosis degree (Masson Trichome score) ([2]; compared with the model group, FIGS. 8A and 8B) | infiltration of white blood cells in the lung (BALF white blood cell count) ([2]; compared with the model group, orally once a day, 14 days, FIG. 6)
1 | Cc1ccc(=O)n(-c2ccccc2)c1 [Pirfenidone, reference compound] | moderate inhibitory effect without statistic difference | significantly inhibited | – | – | – | – | – | – | – | – | –
2 | Cn1c(C(=O)N2CC(F)(F)C2)cc2ccc(-c3nccc(Nc4ccc(-c5cn[nH]c5)cc4)n3)cc21 [Compound 007] | significantly inhibited | significantly inhibited | significantly higher | significantly reduced | significantly better than that of pirfenidone and compound 128 | equivalent to those of pirfenidone and nintedanib | equivalent to those of pirfenidone and nintedanib | superior to pirfenidone and nintedanib | significantly improved | significantly improved | significantly reduce
